{"source": "ChEMBL document CHEMBL3046021", "about": "“Docking and QSAR studies of new 1,4-dihydropyridines containing 4(5)-chloro-2-methyl-5(4)-imidazolyl substituent” (Med Chem Res, 2012)", "data": [{"target": "Voltage-dependent L-type calcium channel subunit alpha-1C (Cavia porcellus, UniProt O35505)", "sequence (O35505 whole entry)": "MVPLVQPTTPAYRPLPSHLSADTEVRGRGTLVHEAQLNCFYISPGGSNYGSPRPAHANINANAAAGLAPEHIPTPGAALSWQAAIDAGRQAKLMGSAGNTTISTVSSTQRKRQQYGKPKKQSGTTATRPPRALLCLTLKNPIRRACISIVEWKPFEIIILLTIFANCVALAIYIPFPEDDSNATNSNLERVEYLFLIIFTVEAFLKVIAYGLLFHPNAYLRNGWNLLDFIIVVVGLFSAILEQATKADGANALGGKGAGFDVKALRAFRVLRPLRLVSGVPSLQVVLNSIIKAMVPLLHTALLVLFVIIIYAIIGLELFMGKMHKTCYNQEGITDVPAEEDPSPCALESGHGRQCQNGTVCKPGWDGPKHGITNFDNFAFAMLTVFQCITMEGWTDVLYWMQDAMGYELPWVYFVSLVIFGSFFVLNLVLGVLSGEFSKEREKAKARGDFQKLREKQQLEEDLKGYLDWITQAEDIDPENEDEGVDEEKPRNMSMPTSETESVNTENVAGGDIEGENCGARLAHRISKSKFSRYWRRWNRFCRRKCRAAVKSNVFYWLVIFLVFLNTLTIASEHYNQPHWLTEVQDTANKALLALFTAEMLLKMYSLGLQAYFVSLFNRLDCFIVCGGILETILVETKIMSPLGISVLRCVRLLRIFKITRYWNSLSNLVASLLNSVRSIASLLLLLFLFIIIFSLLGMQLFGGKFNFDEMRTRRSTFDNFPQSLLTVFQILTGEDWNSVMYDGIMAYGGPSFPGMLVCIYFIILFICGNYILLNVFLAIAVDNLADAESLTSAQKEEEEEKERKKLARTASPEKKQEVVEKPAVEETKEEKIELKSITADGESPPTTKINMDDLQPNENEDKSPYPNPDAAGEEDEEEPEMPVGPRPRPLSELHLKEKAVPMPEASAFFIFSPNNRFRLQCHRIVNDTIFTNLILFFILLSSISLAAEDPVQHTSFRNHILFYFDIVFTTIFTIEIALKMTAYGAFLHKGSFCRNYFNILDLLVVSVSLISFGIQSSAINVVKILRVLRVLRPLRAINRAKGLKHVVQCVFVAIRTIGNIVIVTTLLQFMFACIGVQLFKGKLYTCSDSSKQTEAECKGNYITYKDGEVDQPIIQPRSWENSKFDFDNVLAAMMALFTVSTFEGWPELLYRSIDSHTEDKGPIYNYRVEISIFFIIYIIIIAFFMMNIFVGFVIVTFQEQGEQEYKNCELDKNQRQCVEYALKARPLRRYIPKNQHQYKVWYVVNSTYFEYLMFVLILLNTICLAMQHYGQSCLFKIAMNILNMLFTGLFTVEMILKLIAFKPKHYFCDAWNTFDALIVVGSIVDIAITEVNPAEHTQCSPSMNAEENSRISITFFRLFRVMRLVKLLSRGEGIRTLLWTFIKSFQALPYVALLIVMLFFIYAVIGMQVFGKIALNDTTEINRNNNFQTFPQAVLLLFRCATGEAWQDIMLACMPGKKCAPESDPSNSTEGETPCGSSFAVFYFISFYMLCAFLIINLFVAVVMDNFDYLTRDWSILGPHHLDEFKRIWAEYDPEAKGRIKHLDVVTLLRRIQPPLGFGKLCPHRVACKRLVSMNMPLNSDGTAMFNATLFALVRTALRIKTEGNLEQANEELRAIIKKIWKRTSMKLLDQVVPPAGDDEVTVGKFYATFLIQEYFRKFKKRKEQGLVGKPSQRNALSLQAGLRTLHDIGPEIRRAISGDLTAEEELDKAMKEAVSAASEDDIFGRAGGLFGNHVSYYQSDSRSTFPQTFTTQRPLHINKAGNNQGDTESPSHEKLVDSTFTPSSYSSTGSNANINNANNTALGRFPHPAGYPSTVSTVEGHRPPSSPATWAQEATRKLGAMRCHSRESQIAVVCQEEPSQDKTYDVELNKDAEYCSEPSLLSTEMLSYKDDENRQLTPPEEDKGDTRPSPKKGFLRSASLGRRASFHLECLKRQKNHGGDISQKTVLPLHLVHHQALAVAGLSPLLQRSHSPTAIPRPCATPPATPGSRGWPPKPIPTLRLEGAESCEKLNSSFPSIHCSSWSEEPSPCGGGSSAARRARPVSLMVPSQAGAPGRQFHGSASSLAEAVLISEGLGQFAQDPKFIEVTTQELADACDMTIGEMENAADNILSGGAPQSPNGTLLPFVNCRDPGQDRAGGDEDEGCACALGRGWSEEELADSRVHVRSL", "assay": "Inhibition of L-type calcium channel in Cavia porcellus (guinea pig) ileal SMC assessed as inhibition of 80 mM KCl-induced current", "units": {"IC50": "nM"}, "values": [{"smiles": "CCOC(=O)C1=C(C)NC(C)=C(C(=O)OC(C)(C)C)C1c1[nH]c(C)nc1Cl", "note": "(stereo not drawn)", "IC50": 1660}, {"smiles": "CCOC(=O)C1=C(C)NC(C)=C(C(=O)OCc2ccccc2)C1c1[nH]c(C)nc1Cl", "note": "(stereo not drawn)", "IC50": 91.2}, {"smiles": "CC1=C(C(=O)OC(C)C)C(c2[nH]c(C)nc2Cl)C(C(=O)OC(C)C)=C(C)N1", "IC50": 38}, {"smiles": "COC(=O)C1=C(C)NC(C)=C(C(=O)OCc2ccccc2)C1c1[nH]c(C)nc1Cl", "note": "(stereo not drawn)", "IC50": 93.3}, {"smiles": "CCOC(=O)C1=C(C)NC(C)=C(C(=O)OCCc2ccccc2)C1c1[nH]c(C)nc1Cl", "note": "(stereo not drawn)", "IC50": 70.8}, {"smiles": "CC1=C(C(=O)OC2CCCC2)C(c2[nH]c(C)nc2Cl)C(C(=O)OC2CCCC2)=C(C)N1", "IC50": 97.7}, {"smiles": "COC(=O)C1=C(C)NC(C)=C(C(=O)OCC2CCCCC2)C1c1[nH]c(C)nc1Cl", "note": "(stereo not drawn)", "IC50": 355}, {"smiles": "CC1=C(C(=O)OCC(C)C)C(c2[nH]c(C)nc2Cl)C(C(=O)OCC(C)C)=C(C)N1", "IC50": 95.5}, {"smiles": "CCOC(=O)C1=C(C)NC(C)=C(C(=O)OC)C1c1[nH]c(C)nc1Cl", "note": "(stereo not drawn)", "IC50": 661}, {"smiles": "CC1=C(C(=O)OCC2CCCCC2)C(c2[nH]c(C)nc2Cl)C(C(=O)OCC2CCCCC2)=C(C)N1", "IC50": 631}, {"smiles": "CC1=C(C(=O)OCCCc2ccccc2)C(c2nc(C)[nH]c2Cl)C(C(=O)OCCCc2ccccc2)=C(C)N1", "IC50": 1.74}, {"smiles": "CCOC(=O)C1=C(C)NC(C)=C(C(=O)OCC2CCCCC2)C1c1[nH]c(C)nc1Cl", "note": "(stereo not drawn)", "IC50": 513}, {"smiles": "CC1=C(C(=O)OCCc2ccccc2)C(c2nc(C)[nH]c2Cl)C(C(=O)OCCc2ccccc2)=C(C)N1", "IC50": 0.182}, {"smiles": "CC1=C(C(=O)OCc2ccccc2)C(c2nc(C)[nH]c2Cl)C(C(=O)OCc2ccccc2)=C(C)N1", "IC50": 41.7}, {"smiles": "CCCOC(=O)C1=C(C)NC(C)=C(C(=O)OC)C1c1[nH]c(C)nc1Cl", "note": "(stereo not drawn)", "IC50": 437}, {"smiles": "CC1=C(C(=O)OC2CCCCC2)C(c2[nH]c(C)nc2Cl)C(C(=O)OC2CCCCC2)=C(C)N1", "IC50": 955}, {"smiles": "COC(=O)C1=C(C)NC(C)=C(C(=O)OC(C)(C)C)C1c1[nH]c(C)nc1Cl", "note": "(stereo not drawn)", "IC50": 1860}, {"smiles": "COC(=O)C1=C(C)NC(C)=C(C(=O)OC)C1c1[nH]c(C)nc1Cl", "IC50": 1200}, {"smiles": "CCOC(=O)C1=C(C)NC(C)=C(C(=O)OCC)C1c1[nH]c(C)nc1Cl", "IC50": 437}, {"smiles": "CCCOC(=O)C1=C(C)NC(C)=C(C(=O)OCC)C1c1[nH]c(C)nc1Cl", "note": "(stereo not drawn)", "IC50": 407}, {"smiles": "CCCOC(=O)C1=C(C)NC(C)=C(C(=O)OCCC)C1c1[nH]c(C)nc1Cl", "IC50": 63.1}, {"smiles": "COC(=O)C1=C(C)NC(C)=C(C(=O)OCCc2ccccc2)C1c1[nH]c(C)nc1Cl", "note": "(stereo not drawn)", "IC50": 79.4}, {"smiles": "CC1=C(C(=O)OC(C)(C)C)C(c2[nH]c(C)nc2Cl)C(C(=O)OC(C)(C)C)=C(C)N1", "IC50": 4070}]}]}
